Data reported in US8338643B2, “Reagent for introduction of protein or gene” (Waseda University, priority 2006, dated 2012).

Tests used:
COS-1 cells = assay: Gene expression level by luciferase assay, lipid/pDNA complex; assay type: cell-based; settings: for Gene expression level: COS-1, DOPE/cationic lipid liposome, 200 ng DNA, 24 hours
Procedure: (§1) Use of a cationic lipid as a reagent for gene introduction was studied. Cationic liposomes consisting of a mixed membrane constituted by DOPE as a membrane-fusogenic lipid and a cationic lipid were prepared. 15 mg of the mixed lipid (the introduction amount of cationic lipid membrane in mixed membrane was adjusted to 20, 30, 40 or 50 mol %) was dispersed in 1.5 mL of the HEPES buffer solution (pH 7.4), and a liposome having the particle size of about 100 nm was prepared using a probe-type ultrasonic apparatus. The particle size was measured by the dynamic light scattering method. In the table, A represents a cationic lipid 2 and a cationic lipid 6; B represents a cationic lipid 5; C represents a cationic lipid 7; and D represents a cationic lipid 8.
In order to evaluate the gene transfer ability of the prepared cationic liposomes, the gene expression level was calculated based on luciferase assay using an luciferase-encoding plasmid vector (phRL-TK) (n=3).
The experimental protocol was as follows. The amount of transfected DNA was set to 200 ng in all the cases. In 100 μL of medium, COS-1 cells (1×10^4 cells/well) were seeded on a 96-well plate, and cultured in a CO2 incubator for 12 hours. A complex of lipid and plasmid DNA (lipid/pDNA complex) was allowed to stand for minutes, and diluted with the medium to be added to the cells. After that, culture in the CO2 incubator was carried out for 24 hours. The medium was removed, and washing with PBS(−) was carried out twice. Then, a dissolution buffer diluted 5-fold with MilliQ water was added to the medium (25 μl/well), and the cells were solubilized. The obtained solution was mildly stirred and allowed to stand at room temperature for minutes. To 20 μL of the cell solution, 100 μL of the coelenterazine solution was added, and the luminescence intensity was measured using a luminometer.

ζ potential of liposomes = assay type: physicochemical; settings: for ζ potential: DOPE mixed membrane, in mV
Procedure: As evaluation of physical properties, the quantification of lipid was carried out by means of quantification of choline-type phospholipid, and quantification of encapsulated protein was carried out by means of HPLC (220 nm). In addition, the particle size and ζ potential were measured by the dynamic light scattering method (BECKMAN COULTER, N4 PLUS). […]
(§2) The particle size and the ζ potential of the prepared cationic liposomes were measured. In the measurement of the particle size, the particle size in the case of the lipid concentration of 30 μM was measured by the dynamic light scattering method. In the measurement of the ζ potential, a liposome dispersion was diluted with a HEPES buffer solution (pH 7.4), and the ζ potential in the case of 30 μM was measured.
Next, the ζ potential of the prepared cationic liposomes was measured. A to D in the table was the same as Table 9.

[1] = Particle size of liposomes by dynamic light scattering; assay type: physicochemical; settings: DOPE mixed membrane, in nm
Procedure: as §2, §1

ζ potential (ζ potential of liposomes; cationic lipid 20 mol %)	ζ potential (ζ potential of liposomes; cationic lipid 30 mol %)	ζ potential (ζ potential of liposomes; cationic lipid 40 mol %)	ζ potential (ζ potential of liposomes; cationic lipid 50 mol %)	Particle size ([1]; cationic lipid 20 mol %)	Particle size ([1]; cationic lipid 30 mol %)	Particle size ([1]; cationic lipid 40 mol %)	Particle size ([1]; cationic lipid 50 mol %)	ζ potential, comparison between lipids (ζ potential of liposomes; DOPE mixed membrane liposomes)	Compound	Gene expression level (COS-1 cells)	Gene expression efficiency at best conditions (COS-1 cells; DOPE/lipid 6=6/4 (mol ratio), cationic liposome/plasmid DNA 10/1 (w/w))
									CCCCCCCCCCCCCCCCOC(=O)CCC(NC(=O)C(N)CCCCN)C(=O)OCCCCCCCCCCCCCCCC (stereo not drawn) [Compound 2, Lys-Glu2C16]	the gene expression level was low	
28 ± 3.4	37 ± 0.2	42 ± 3.0	41 ± 1.3	99 ± 45	95 ± 46	91 ± 43	100 ± 47		CCCCCCCCCCCCCCCCOC(=O)CCC(NC(=O)CCCCCNC(=O)C(N)CCCCN)C(=O)OCCCCCCCCCCCCCCCC (stereo not drawn) [Compound 5, Lys-(CH2)5-Glu2C16]	the expression level was lower than that of the spacer-contained lipid 6	
									Lys-(CH2)3-Glu2C16 [Compound 6]	a high expression efficiency was obtained	The highest expression efficiency was obtained
34 ± 42	40 ± 3.3	49 ± 3.3	37 ± 3.1	88 ± 42	98 ± 37	86 ± 40	100 ± 48		Lys-(CH2)7-Glu2C16 [Compound 7]	the gene expression level was low	
30 ± 1.2	37 ± 0.8	37 ± 3.1	44 ± 1.6	95 ± 36	113 ± 50	80 ± 39	95 ± 36	slightly lower than that of the lipid 7	Lys-(CH2)11-Glu2C16 [Compound 8]		
